# From ChEMBL document CHEMBL1201862, “PubChem BioAssay data set” (2004)
#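 Dose response: 5 concentrations. Exposure: 48 h. Format: 96-well plates. Endpoint: linear interpolation; highest concentration if not reached. Here, GI50 denotes the concentration required for 50% inhibition of growth.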 The source made the active and inactive calls. Rule as the data show it: active = GI50 up to about 1.1 µM and inactive = higher.
# Legend:
# Assay in all cases: inhibition of tumour cell growth, NCI panel, 48 h
# HT-29 = system: HT-29
# SK-MEL-5 = system: SK-MEL-5
# HCC 2998 = system: HCC 2998
# NCI-H23 = system: NCI-H23
# RPMI-8226 = system: RPMI-8226
# SF-295 = system: SF-295
# OVCAR-8 = system: OVCAR-8
# U-251 = system: U-251
# OVCAR-3 = system: OVCAR-3
# A549 = system: A549
# SF-268 = system: SF-268
# NCI/ADR-RES = system: NCI/ADR-RES
# CCRF-CEM = system: CCRF-CEM
# NCI-H226 = system: NCI-H226
# T47D = system: T47D
# COLO 205 = system: COLO 205
# MCF7 = system: MCF7
# UACC-62 = system: UACC-62
# MDA-N = system: MDA-N
# NCI-H522 = system: NCI-H522
SMILES,GI50 (HT-29),GI50 (SK-MEL-5),GI50 (HCC 2998),GI50 (NCI-H23),GI50 (RPMI-8226),GI50 (SF-295),GI50 (OVCAR-8),GI50 (U-251),GI50 (OVCAR-3),GI50 (A549),GI50 (SF-268),GI50 (NCI/ADR-RES),GI50 (CCRF-CEM),GI50 (NCI-H226),GI50 (T47D),GI50 (COLO 205),GI50 (MCF7),GI50 (UACC-62),GI50 (MDA-N),GI50 (NCI-H522)
Cc1nc2c(cc1C(=O)N/N=C/c1ccc([N+](=O)[O-])cc1)c(=O)n(C)c(=O)n2C,> 100 µM (inactive),> 100 µM (inactive),> 100 µM (inactive),41.8 µM (inactive),96.6 µM (inactive),54.1 µM (inactive),32.4 µM (inactive),19.2 µM (inactive),> 100 µM (inactive),> 100 µM (inactive),25.4 µM (inactive),> 100 µM (inactive),> 100 µM (inactive),80.2 µM (inactive),80.4 µM (inactive),> 100 µM (inactive),> 100 µM (inactive),> 100 µM (inactive),> 100 µM (inactive),
O=C(O)CP(=O)(O)O,> 100 µM (inactive),> 100 µM (inactive),> 100 µM (inactive),> 100 µM (inactive),> 100 µM (inactive),> 100 µM (inactive),> 100 µM (inactive),> 100 µM (inactive),> 100 µM (inactive),> 100 µM (inactive),> 100 µM (inactive),> 100 µM (inactive),> 100 µM (inactive),> 100 µM (inactive),> 100 µM (inactive),> 100 µM (inactive),> 100 µM (inactive),> 100 µM (inactive),> 100 µM (inactive),> 100 µM (inactive)
CC(C)C(C/C=C1/CC(CO)(COC(=O)C2CCCCC2)OC1=O)C(C)C (centres undefined),27.9 µM (inactive),18.3 µM (inactive),26.1 µM (inactive),16.6 µM (inactive),,14.2 µM (inactive),17.7 µM (inactive),18.3 µM (inactive),18.5 µM (inactive),12.5 µM (inactive),17.6 µM (inactive),21.3 µM (inactive),17.2 µM (inactive),21.4 µM (inactive),21.3 µM (inactive),5.94 µM (inactive),18.7 µM (inactive),89.9 µM (inactive),19.1 µM (inactive),17.3 µM (inactive)
O=C(CCc1ccc(O)c(O)c1)NCCc1cc(O)cc(O)c1,> 100 µM (inactive),> 100 µM (inactive),> 100 µM (inactive),> 100 µM (inactive),> 100 µM (inactive),> 100 µM (inactive),> 100 µM (inactive),> 100 µM (inactive),> 100 µM (inactive),> 100 µM (inactive),> 100 µM (inactive),> 100 µM (inactive),29.2 µM (inactive),> 100 µM (inactive),> 100 µM (inactive),> 100 µM (inactive),66.8 µM (inactive),> 100 µM (inactive),23.8 µM (inactive),71 µM (inactive)
CC(=O)OC1CCN(C(=O)c2ccccc2)CC1CC1(c2cc3ccccc3[nH]2)OCCO1 (centres undefined),> 100 µM (inactive),44 µM (inactive),47.3 µM (inactive),69.2 µM (inactive),22.3 µM (inactive),68.5 µM (inactive),73.1 µM (inactive),77.4 µM (inactive),53.1 µM (inactive),50.1 µM (inactive),,51.6 µM (inactive),48.3 µM (inactive),> 100 µM (inactive),34 µM (inactive),53.1 µM (inactive),> 100 µM (inactive),36.6 µM (inactive),39.2 µM (inactive),78.9 µM (inactive)
CSc1cc(Cl)c(C)cc1S(=O)(=O)NC(=O)NNc1ccc(C)cc1,> 100 µM (inactive),> 100 µM (inactive),22.2 µM (inactive),,,> 100 µM (inactive),> 100 µM (inactive),> 100 µM (inactive),> 100 µM (inactive),> 100 µM (inactive),> 100 µM (inactive),64.3 µM (inactive),> 100 µM (inactive),> 100 µM (inactive),61.9 µM (inactive),> 100 µM (inactive),> 100 µM (inactive),,> 100 µM (inactive),> 100 µM (inactive)
Cc1cn(CCCCOC(=O)NC(CCCNC(N)=O)C(=O)O)c(=O)[nH]c1=O (centres undefined),> 100 µM (inactive),,> 100 µM (inactive),> 100 µM (inactive),> 100 µM (inactive),> 100 µM (inactive),> 100 µM (inactive),> 100 µM (inactive),> 100 µM (inactive),> 100 µM (inactive),> 100 µM (inactive),> 100 µM (inactive),> 100 µM (inactive),> 100 µM (inactive),> 100 µM (inactive),> 100 µM (inactive),> 100 µM (inactive),> 100 µM (inactive),> 100 µM (inactive),
CC(=O)O[C@H]1CC[C@H]2[C@@H]3CCC4=CC(=O)C=C[C@]4(O)[C@H]3CC[C@]12C,,4.6 µM (inactive),45.1 µM (inactive),9.91 µM (inactive),3.47 µM (inactive),16.6 µM (inactive),19.1 µM (inactive),46 µM (inactive),42.1 µM (inactive),> 42 µM (inactive),,12 µM (inactive),13.5 µM (inactive),16.6 µM (inactive),13.3 µM (inactive),22.4 µM (inactive),26.7 µM (inactive),42.3 µM (inactive),29.9 µM (inactive),
COc1c(CC=C(C)C)c(O)c(C(CC(C)C)c2c(O)c3c(c(C(C)=O)c2O)OC(C(C)(C)O)C3)c(O)c1C(C)=O (centres undefined),4.86 µM (inactive),2.22 µM (inactive),3.63 µM (inactive),2.63 µM (inactive),0.968 µM (active),4.55 µM (inactive),4.4 µM (inactive),,6.08 µM (inactive),4.21 µM (inactive),4.53 µM (inactive),3.44 µM (inactive),2.58 µM (inactive),,3.46 µM (inactive),3.21 µM (inactive),3.61 µM (inactive),4.94 µM (inactive),4.05 µM (inactive),3.42 µM (inactive)
COc1ccc(Cc2ccccc2C(=O)O)c2ccccc12,28.8 µM (inactive),17.3 µM (inactive),,25.5 µM (inactive),29.4 µM (inactive),28.4 µM (inactive),28.5 µM (inactive),25.7 µM (inactive),20.7 µM (inactive),33 µM (inactive),22.8 µM (inactive),32.5 µM (inactive),26.1 µM (inactive),39.4 µM (inactive),44.4 µM (inactive),17.9 µM (inactive),38.1 µM (inactive),16.3 µM (inactive),27.6 µM (inactive),20.3 µM (inactive)
O=C(c1ccsc1)c1nccc2c1cnc1ccccc12,> 100 µM (inactive),36.2 µM (inactive),,45.3 µM (inactive),> 100 µM (inactive),45.5 µM (inactive),> 100 µM (inactive),85.1 µM (inactive),> 100 µM (inactive),> 100 µM (inactive),77.3 µM (inactive),> 100 µM (inactive),> 100 µM (inactive),34.8 µM (inactive),> 100 µM (inactive),> 100 µM (inactive),47.2 µM (inactive),65.6 µM (inactive),> 100 µM (inactive),12.7 µM (inactive)
COC(=O)Nc1nc2cc(C(=O)c3ccc[nH]3)ccc2[nH]1,0.415 µM (active),0.282 µM (active),2.55 µM (inactive),6.87 µM (inactive),0.49 µM (active),0.759 µM (active),3.18 µM (inactive),0.721 µM (active),,,2.04 µM (inactive),0.465 µM (active),0.577 µM (active),1.16 µM (inactive),0.959 µM (active),0.342 µM (active),0.341 µM (active),0.425 µM (active),0.134 µM (active),0.402 µM (active)
Cc1ccc(C)c(NC(=O)/C(=N\N)C(c2cnc3ccc([N+](=O)[O-])cc3n2)[N+](=O)[O-])c1 (centres undefined),65.8 µM (inactive),41.6 µM (inactive),69.8 µM (inactive),70.8 µM (inactive),45.9 µM (inactive),> 100 µM (inactive),37 µM (inactive),> 100 µM (inactive),61.1 µM (inactive),92.7 µM (inactive),93.5 µM (inactive),32.2 µM (inactive),4.99 µM (inactive),> 100 µM (inactive),87.7 µM (inactive),,60.8 µM (inactive),> 100 µM (inactive),> 100 µM (inactive),19.7 µM (inactive)
Cc1ccccc1Nc1nc(NNC(=O)Cc2ccccc2)nc(NNC(=O)c2ccncc2)n1,> 10 µM (inactive),,> 10 µM (inactive),,> 10 µM (inactive),,> 10 µM (inactive),> 10 µM (inactive),,,> 10 µM (inactive),> 10 µM (inactive),> 10 µM (inactive),,> 10 µM (inactive),> 10 µM (inactive),> 10 µM (inactive),> 10 µM (inactive),> 10 µM (inactive),
Cc1cc(=O)oc2cc(OCC(O)COC(C)C)ccc12 (centres undefined),> 100 µM (inactive),> 100 µM (inactive),> 100 µM (inactive),> 100 µM (inactive),> 100 µM (inactive),> 100 µM (inactive),> 100 µM (inactive),> 100 µM (inactive),> 100 µM (inactive),> 100 µM (inactive),> 100 µM (inactive),> 100 µM (inactive),> 100 µM (inactive),,> 100 µM (inactive),> 100 µM (inactive),> 100 µM (inactive),> 100 µM (inactive),91.4 µM (inactive),> 100 µM (inactive)
